Laboratory results reported in US20100298141A1, “SUBSTITUTED PYRIDINE N-OXIDE HERBICIDES” (E. I. DU PONT DE NEMOURS AND COMPANY, priority 2007, published 2010).

Key:
crabgrass = assay: Test A pre-/postemergence greenhouse test; type: in vivo, Digitaria sanguinalis; details: for Plant response rating, Crabgrass, Large: 0 to 100 scale where 0 is no effect and 100 is complete control; for Crabgrass, Large plant response rating: 0 to 100 scale
Summary of the method: (§1)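 Pots of loam–sand soil sown with the test species are sprayed preemergence on the soil surface; emerged seedlings (1–2 leaves, 2–10 cm) are sprayed postemergence at the same time. The vehicle is a non-phytotoxic solvent mixture with surfactant. Injury is scored visually after ~10 d in greenhouse.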

morningglory = assay: Test A pre-/postemergence greenhouse test; type: in vivo, Ipomoea spp.; details: for Plant response rating, Morningglory: 0 to 100 scale where 0 is no effect and 100 is complete control; for Morningglory plant response rating: 0 to 100 scale
Summary of the method: as §1

velvetleaf = assay: Test A pre-/postemergence greenhouse test; type: in vivo, Abutilon theophrasti; details: for Plant response rating, Velvetleaf: 0 to 100 scale where 0 is no effect and 100 is complete control; for Velvetleaf plant response rating: 0 to 100 scale
Summary of the method: as §1

corn = assay: Test A pre-/postemergence greenhouse test; type: in vivo, Zea mays; details: for Plant response rating, Corn: 0 to 100 scale where 0 is no effect and 100 is complete control; for Corn plant response rating: 0 to 100 scale
Summary of the method: as §1

rice = assay: Test C flooded paddy test; type: in vivo, Oryza sativa; details: Flood
Summary of the method: (§2)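 Flooded 3 cm over soil; compound into paddy water; depth kept constant. Greenhouse 13–15 d.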

duck salad = assay: Test C flooded paddy test; type: in vivo, Heteranthera limosa; details: Flood
Summary of the method: as §2

barnyardgrass [1] = assay: Test C flooded paddy test; type: in vivo, Echinochloa crus-galli; details: Flood
Summary of the method: as §2

barnyardgrass [2] = assay: Test A pre-/postemergence greenhouse test; type: in vivo, Echinochloa crus-galli; details: for Plant response rating, Barnyardgrass: 0 to 100 scale where 0 is no effect and 100 is complete control; for Barnyardgrass plant response rating: 0 to 100 scale
Summary of the method: as §1

giant foxtail = assay: Test A pre-/postemergence greenhouse test; type: in vivo, Setaria faberi; details: for Plant response rating, Foxtail, Giant: 0 to 100 scale where 0 is no effect and 100 is complete control; for Foxtail, Giant plant response rating: 0 to 100 scale
Summary of the method: as §1

umbrella sedge = assay: Test C flooded paddy test; type: in vivo, Cyperus difformis; details: Flood
Summary of the method: as §2

redroot pigweed = assay: Test A pre-/postemergence greenhouse test; type: in vivo, Amaranthus retroflexus; details: for Plant response rating, Pigweed: 0 to 100 scale where 0 is no effect and 100 is complete control; for Pigweed plant response rating: 0 to 100 scale
Summary of the method: as §1

wheat = assay: Test A pre-/postemergence greenhouse test; type: in vivo, Triticum aestivum; details: for Plant response rating, Wheat: 0 to 100 scale where 0 is no effect and 100 is complete control; for Wheat plant response rating: 0 to 100 scale
Summary of the method: as §1

[3] = Postemergence, 500 g ai/ha, 0 is no effect, 100 is complete control
[4] = Preemergence, 125 g ai/ha, 0 no effect, 100 complete control
[5] = Preemergence, 500 g ai/ha, 0 no effect, 100 complete control
[6] = 62 g ai/ha, scale 0 to 100 (0 no effect, 100 complete control)
[7] = 250 g ai/ha, scale 0 to 100, 0 no effect, 100 complete control, 13 to 15 days
[8] = 31 g ai/ha, scale 0 to 100 (0 no effect, 100 complete control)
[9] = 125 g ai/ha, scale 0 to 100, 0 no effect, 100 complete control, 13 to 15 days

Compound: Cc1cc[n+]([O-])c([S+]([O-])Cc2c(C(F)(F)F)nn(C)c2OC(C)C(F)(F)F)c1 (stereo not drawn) [Compound 88]
- Plant response rating, Crabgrass, Large (crabgrass; Postemergence, 125 g ai/ha): 50
- Crabgrass, Large plant response rating (crabgrass; [3]): 80
- Crabgrass, Large plant response rating (crabgrass; [4]): 20
- Plant response rating, Crabgrass, Large (crabgrass; Preemergence, 500 g ai/ha): 90
- Plant response rating, Morningglory (morningglory; Postemergence, 125 g ai/ha): 60
- Morningglory plant response rating (morningglory; [3]): 90
- Morningglory plant response rating (morningglory; [4]): 70
- Plant response rating, Morningglory (morningglory; Preemergence, 500 g ai/ha): 90
- Plant response rating, Velvetleaf (velvetleaf; Postemergence, 125 g ai/ha): 0
- Velvetleaf plant response rating (velvetleaf; [3]): 50
- Velvetleaf plant response rating (velvetleaf; [4]): 0
- Velvetleaf plant response rating (velvetleaf; [5]): 90
- Plant response rating, Corn (corn; Postemergence, 125 g ai/ha): 20
- Corn plant response rating (corn; [3]): 60
- Corn plant response rating (corn; [4]): 0
- Plant response rating, Corn (corn; Preemergence, 500 g ai/ha): 50
- Plant response rating, Rice (rice; [6]): 0
- Plant response rating, Rice (rice; [7]): 45
- Plant response rating, Ducksalad (duck salad; [6]): 0
- Plant response rating, Ducksalad (duck salad; [7]): 70
- Plant response rating, Barnyardgrass (barnyardgrass [1]; [6]): 0
- Plant response rating, Barnyardgrass (barnyardgrass [1]; [7]): 30
- Plant response rating, Barnyardgrass (barnyardgrass [2]; Postemergence, 125 g ai/ha): 30
- Barnyardgrass plant response rating (barnyardgrass [2]; [3]): 80
- Barnyardgrass plant response rating (barnyardgrass [2]; [4]): 60
- Plant response rating, Barnyardgrass (barnyardgrass [2]; Preemergence, 500 g ai/ha): 100
- Plant response rating, Foxtail, Giant (giant foxtail; Postemergence, 125 g ai/ha): 50
- Foxtail, Giant plant response rating (giant foxtail; [3]): 90
- Foxtail, Giant plant response rating (giant foxtail; [4]): 90
- Plant response rating, Foxtail, Giant (giant foxtail; Preemergence, 500 g ai/ha): 100
- Plant response rating, Sedge, Umbrella (umbrella sedge; [6]): 0
- Plant response rating, Sedge, Umbrella (umbrella sedge; [7]): 85
- Plant response rating, Pigweed (redroot pigweed; Postemergence, 125 g ai/ha): 30
- Pigweed plant response rating (redroot pigweed; [3]): 80
- Pigweed plant response rating (redroot pigweed; [4]): 90
- Plant response rating, Pigweed (redroot pigweed; Preemergence, 500 g ai/ha): 100
- Plant response rating, Wheat (wheat; Postemergence, 125 g ai/ha): 30
- Wheat plant response rating (wheat; [3]): 70
- Wheat plant response rating (wheat; [4]): 20
- Wheat plant response rating (wheat; [5]): 80

Compound: Cc1ccc[n+]([O-])c1S(=O)(=O)Cc1c(C(F)(F)F)nn(C)c1OC(F)F [Compound 113]
- Plant response rating, Crabgrass, Large (crabgrass; Postemergence, 125 g ai/ha): 60
- Crabgrass, Large plant response rating (crabgrass; [3]): 80
- Crabgrass, Large plant response rating (crabgrass; [4]): 80
- Crabgrass, Large plant response rating (crabgrass; [5]): 90
- Plant response rating, Morningglory (morningglory; Postemergence, 125 g ai/ha): 30
- Morningglory plant response rating (morningglory; [3]): 60
- Morningglory plant response rating (morningglory; [5]): 80
- Plant response rating, Velvetleaf (velvetleaf; Postemergence, 125 g ai/ha): 40
- Velvetleaf plant response rating (velvetleaf; [3]): 50
- Velvetleaf plant response rating (velvetleaf; [4]): 0
- Velvetleaf plant response rating (velvetleaf; [5]): 40
- Plant response rating, Corn (corn; Postemergence, 125 g ai/ha): 0
- Corn plant response rating (corn; [3]): 60
- Corn plant response rating (corn; [4]): 0
- Corn plant response rating (corn; [5]): 80
- Plant response rating, Rice (rice; [8]): 0
- Plant response rating, Rice (rice; [6]): 0
- Plant response rating, Rice (rice; [9]): 0
- Plant response rating, Rice (rice; [7]): 0
- Plant response rating, Ducksalad (duck salad; [8]): 0
- Plant response rating, Ducksalad (duck salad; [6]): 0
- Plant response rating, Ducksalad (duck salad; [9]): 0
- Plant response rating, Ducksalad (duck salad; [7]): 0
- Plant response rating, Barnyardgrass (barnyardgrass [1]; [8]): 0
- Plant response rating, Barnyardgrass (barnyardgrass [1]; [6]): 0
- Plant response rating, Barnyardgrass (barnyardgrass [1]; [9]): 0
- Plant response rating, Barnyardgrass (barnyardgrass [1]; [7]): 0
- Plant response rating, Barnyardgrass (barnyardgrass [2]; Postemergence, 125 g ai/ha): 70
- Barnyardgrass plant response rating (barnyardgrass [2]; [3]): 80
- Barnyardgrass plant response rating (barnyardgrass [2]; [4]): 70
- Barnyardgrass plant response rating (barnyardgrass [2]; [5]): 100
- Plant response rating, Foxtail, Giant (giant foxtail; Postemergence, 125 g ai/ha): 60
- Foxtail, Giant plant response rating (giant foxtail; [3]): 80
- Foxtail, Giant plant response rating (giant foxtail; [4]): 80
- Foxtail, Giant plant response rating (giant foxtail; [5]): 90
- Plant response rating, Sedge, Umbrella (umbrella sedge; [8]): 0
- Plant response rating, Sedge, Umbrella (umbrella sedge; [6]): 0
- Plant response rating, Sedge, Umbrella (umbrella sedge; [9]): 0
- Plant response rating, Sedge, Umbrella (umbrella sedge; [7]): 0
- Plant response rating, Pigweed (redroot pigweed; Postemergence, 125 g ai/ha): 10
- Pigweed plant response rating (redroot pigweed; [3]): 50
- Pigweed plant response rating (redroot pigweed; [4]): 10
- Pigweed plant response rating (redroot pigweed; [5]): 100
- Plant response rating, Wheat (wheat; Postemergence, 125 g ai/ha): 40
- Wheat plant response rating (wheat; [3]): 60
- Wheat plant response rating (wheat; [4]): 0
- Wheat plant response rating (wheat; [5]): 60
